Laboratory results taken from ChEMBL document CHEMBL1671654, “In vivo activity of the pyrrolopyrazolyl-substituted oxazolidinone RWJ-416457” (Antimicrob Agents Chemother, 2009).
Active and inactive are the calls of the source. No cut-off for these calls is given here.

Assays:
[1] = test system: Staphylococcus aureus; assay: Antibacterial activity against methicillin-susceptible Staphylococcus aureus ATCC 13709 infected in po dosed Swiss Webster mouse administered at 1 to 3 hrs post infection measured after 3 days; type: functional; details: ATCC 13709, po
[2] = test system: Staphylococcus aureus; assay: Antibacterial activity against community-associated methicillin-resistant Staphylococcus aureus OC8525 infected in po dosed Swiss Webster mouse administered at 1 to 3 hrs post infection measured after 3 days; type: functional
[3] = test system: Streptococcus pneumoniae; assay: Antibacterial activity against penicillin-susceptible Streptococcus pneumoniae ATCC 6301 infected in po dosed Swiss Webster mouse administered at 1 to 3 hrs post infection measured after 3 days; type: functional; details: ATCC 6301, po
[4] = test system: Staphylococcus aureus; assay: Antibacterial activity against methicillin-susceptible Staphylococcus aureus ATCC 13709 infected in sc dosed Swiss Webster mouse administered at 1 to 3 hrs post infection measured after 3 days; type: functional; details: ATCC 13709, sc
[5] = test system: Staphylococcus aureus; assay: Antibacterial activity against community-associated methicillin-resistant Staphylococcus aureus OC8525 infected in sc dosed Swiss Webster mouse administered at 1 to 3 hrs post infection measured after 3 days; type: functional
[6] = test system: Streptococcus pneumoniae; assay: Antibacterial activity against penicillin-susceptible Streptococcus pneumoniae ATCC 6301 infected in sc dosed Swiss Webster mouse administered at 1 to 3 hrs post infection measured after 3 days; type: functional; details: ATCC 6301, sc
[7] = test system: Staphylococcus aureus; assay: Antibacterial activity against methicillin-susceptible Staphylococcus aureus ATCC 13709 infected in iv dosed Swiss Webster mouse administered at 1 to 3 hrs post infection measured after 3 days; type: functional; details: ATCC 13709, iv
[8] = test system: Staphylococcus aureus; assay: Antibacterial activity against community-associated methicillin-resistant Staphylococcus aureus OC8525 infected in iv dosed Swiss Webster mouse administered at 1 to 3 hrs post infection measured after 3 days; type: functional
[9] = test system: Streptococcus pneumoniae; assay: Antibacterial activity against penicillin-susceptible Streptococcus pneumoniae ATCC 6301 infected in iv dosed Swiss Webster mouse administered at 1 to 3 hrs post infection measured after 3 days; type: functional; details: ATCC 6301, iv
[10] = test system: Staphylococcus aureus; assay: Bacteriostatic activity against methicillin-susceptible Staphylococcus aureus Smith ATCC 13709 infected in SKH1 mouse upto 320 mg/kg/day, po administered post infection measured after 48 hrs; type: functional, organism-based
[11] = test system: Streptococcus pneumoniae; assay: Antibacterial activity against penicillin-susceptible Streptococcus pneumoniae ATCC 6301 infected in po dosed CF-1 mouse administered at 24 hrs post infection measured after 48 hrs relative to Linezolid; type: functional; details: Streptococcus pneumoniae, ATCC 6301, po
[12] = AUC (0 to 24 hrs) in CF-1 mouse at 2 mg/kg, iv; type: ADME, organism-based; parameters: time < 24 hr, dose 2 mg/kg, route intravenous; details: plasma
[13] = AUC (0 to 24 hrs) in CF-1 mouse at 10 mg/kg, sc; type: ADME, organism-based; parameters: time < 24 hr, dose 10 mg/kg, route subcutaneous; details: plasma
[14] = AUC (0 to 24 hrs) in CF-1 mouse at 10 mg/kg, po; type: ADME, organism-based; parameters: time < 24 hr, dose 10 mg/kg, route oral; details: plasma
[15] = test system: Mus musculus; assay: fAUC (0 to 24 hrs) in CF-1 mouse at 2 mg/kg, iv; type: ADME, organism-based; parameters: dose 2 mg/kg, route intravenous; details: in vivo
[16] = test system: Mus musculus; assay: fAUC (0 to 24 hrs) in CF-1 mouse at 10 mg/kg, sc; type: ADME, organism-based; parameters: dose 10 mg/kg, route subcutaneous; details: in vivo
[17] = test system: Mus musculus; assay: fAUC (0 to 24 hrs) in CF-1 mouse at 10 mg/kg, po; type: ADME, organism-based; parameters: dose 10 mg/kg, route oral; details: in vivo
[18] = Cmax in CF-1 mouse at 2 mg/kg, iv; type: ADME, organism-based; parameters: dose 2 mg/kg, route intravenous; details: in vivo
[19] = Cmax in CF-1 mouse at 10 mg/kg, sc; type: ADME, organism-based; parameters: dose 10 mg/kg, route subcutaneous; details: in vivo
[20] = Cmax in CF-1 mouse at 10 mg/kg, po; type: ADME, organism-based; parameters: dose 10 mg/kg, route oral; details: in vivo
[21] = test system: Mus musculus; assay: fCmax in CF-1 mouse at 2 mg/kg, iv; type: ADME, organism-based; parameters: dose 2 mg/kg, route intravenous; details: in vivo
[22] = test system: Mus musculus; assay: fCmax in CF-1 mouse at 10 mg/kg, sc; type: ADME, organism-based; parameters: dose 10 mg/kg, route subcutaneous; details: in vivo
[23] = test system: Mus musculus; assay: fCmax in CF-1 mouse at 10 mg/kg, po; type: ADME, organism-based; parameters: dose 10 mg/kg, route oral; details: in vivo
[24] = Tmax in CF-1 mouse serum at 10 mg/kg, sc; type: ADME, organism-based; parameters: dose 10 mg/kg, route subcutaneous
[25] = Tmax in CF-1 mouse serum at 10 mg/kg, po; type: ADME, organism-based; parameters: dose 10 mg/kg, route oral
[26] = Half life in CF-1 mouse at 2 mg/kg, iv; type: ADME, organism-based; parameters: dose 2 mg/kg, route intravenous; details: in vivo
[27] = Half life in CF-1 mouse at 10 mg/kg, sc; type: ADME, organism-based; parameters: dose 10 mg/kg, route subcutaneous; details: in vivo
[28] = Half life in CF-1 mouse at 10 mg/kg, po; type: ADME, organism-based; parameters: dose 10 mg/kg, route oral; details: in vivo
[29] = Clearance in CF-1 mouse at 2 mg/kg, iv; type: ADME, organism-based; parameters: dose 2 mg/kg, route intravenous; details: in vivo
[30] = Apparent oral clearance in CF-1 mouse at 10 mg/kg, sc; type: ADME, organism-based; parameters: dose 10 mg/kg, route oral; details: in vivo
[31] = Apparent oral clearance in CF-1 mouse at 10 mg/kg, po; type: ADME, organism-based; parameters: dose 10 mg/kg, route oral; details: in vivo
[32] = Ratio of fAUC (24 hrs) for Methicillin-susceptible Staphylococcus aureus ATCC 13709 infected po dosed mouse to MIC for Methicillin-susceptible Staphylococcus aureus ATCC 1370; type: functional
[33] = Ratio of fAUC (24 hrs) for Methicillin-susceptible Staphylococcus aureus ATCC 13709 infected sc dosed mouse to MIC for Methicillin-susceptible Staphylococcus aureus ATCC 1370; type: functional
[34] = Ratio of fAUC (24 hrs) for Methicillin-susceptible Staphylococcus aureus ATCC 13709 infected iv dosed mouse to MIC for Methicillin-susceptible Staphylococcus aureus ATCC 1370; type: functional
[35] = Ratio of fAUC (24 hrs) for community-associated methicillin-resistant Staphylococcus aureus OC8525 infected po dosed mouse to MIC for community-associated methicillin-resistant Staphylococcus aureus OC8525; type: functional
[36] = Ratio of fAUC (24 hrs) for community-associated methicillin-resistant Staphylococcus aureus OC8525 infected sc dosed mouse to MIC for community-associated methicillin-resistant Staphylococcus aureus OC8525; type: functional
[37] = Ratio of fAUC (24 hrs) for community-associated methicillin-resistant Staphylococcus aureus OC8525 infected iv dosed mouse to MIC for community-associated methicillin-resistant Staphylococcus aureus OC8525; type: functional
[38] = Ratio of fAUC (24 hrs) for penicillin-susceptible Streptococcus pneumoniae ATCC 6301 infected po dosed mouse to MIC for penicillin-susceptible Streptococcus pneumoniae ATCC 6301; type: functional
[39] = Ratio of fAUC (24 hrs) for penicillin-susceptible Streptococcus pneumoniae ATCC 6301 infected sc dosed mouse to MIC for penicillin-susceptible Streptococcus pneumoniae ATCC 6301; type: functional
[40] = Ratio of fAUC (24 hrs) for penicillin-susceptible Streptococcus pneumoniae ATCC 6301 infected iv dosed mouse to MIC for penicillin-susceptible Streptococcus pneumoniae ATCC 6301; type: functional

In the case of CC(=O)NC[C@H]1CN(c2ccc(N3CCOCC3)c(F)c2)C(=O)O1 [LINEZOLID], the ED50 [1] is reported as 6.4 mg/kg/day, the ED50 [2] is reported as 5.1 mg/kg/day and the ED50 [3] is reported as 14 mg/kg/day. For the same molecule, the ED50 [4] was 7 mg/kg/day, the ED50 [5] was 3.7 mg/kg/day and the ED50 [6] was 20 mg/kg/day. It also gave an ED50 [7] of 6.3 mg/kg/day, an ED50 [8] of 8.5 mg/kg/day and an ED50 [9] greater than 40 mg/kg/day. For the same molecule, the Activity [10] was “Active”, the ED50 [11] was no less than 14 mg/kg/day and the AUC(0-t) at 24 h [12] was 2100 ng·h/mL. The AUC(0-t) at 24 h [13] was 16000 ng·h/mL, the AUC(0-t) at 24 h [14] was 19000 ng·h/mL and the fAUC [15] was 1400 ng·h/mL. It also gave a fAUC [16] of 11000 ng·h/mL, a fAUC [17] of 13000 ng·h/mL and a Cmax [18] of 3300 ng/mL. The Cmax [19] was 11000 ng/mL, the Cmax [20] was 8900 ng/mL and the fCmax [21] was 2.3 µg/mL. The fCmax [22] was 7.1 µg/mL, the fCmax [23] was 6 µg/mL and the Tmax [24] was no more than 7.8 min. For the same molecule, the Tmax [25] was no more than 7.8 min, the half-life [26] was 30 min and the half-life [27] was 48 min. For the same molecule, the half-life [28] was 84 min, the clearance [29] was 15.7 mL/min/kg and the CL/F [30] was 10.7 mL/min/kg. The CL/F [31] was 8.67 mL/min/kg, the fAUC/MIC [32] was 6.6 and the fAUC/MIC [33] was 5.3. It also gave a fAUC/MIC [34] of 3.6, a fAUC/MIC [35] of 3.3 and a fAUC/MIC [36] of 2.6. The fAUC/MIC [37] was 1.8, the fAUC/MIC [38] was 6.6 and the fAUC/MIC [39] was 5.3. For the same molecule, the fAUC/MIC [40] was 3.6.
